Measurements taken from patent publication US20260022143A1, “Cyclic Peptide Inhibitors of IL-23” (JANSSEN PHARMACEUTICA NV, priority 2022, published 2026).
Starred links: 1 amine or outer side, 2 acyl side, 3 side chain; linkers in the order of their positions; H or OH if unused. Positions of bridges follow the written chain, without caps; N, C: chain ends. Non-standard residues stand in square brackets, D forms with d. Residues, ends and D or L forms follow the SMILES beside them. Groups on a side chain read outwards from the residue. *: point of attachment. Trp(7-(3-AcNH-Ph)) = CC(=O)Nc1cccc(-c2cccc3c(C[C@H](N)C(=O)O)c[nH]c23)c1; X80 = COCC[N+](C)(C)CCCCc1cn(-c2ccc(C[C@H](N[*:1])C(=O)[*:2])cc2)nn1; Me3N+(CH2)2O(CH2)2O(CH2)2CO = C[N+](C)(C)CCOCCOCCC(=O)*; Trp(7-Me) = Cc1cccc2c(C[C@H](N)C(=O)O)c[nH]c12; dLys(Me3) = C[N+](C)(C)CCCC[C@@H](N)C(=O)O; 3Pal(5-Me) = Cc1cncc(C[C@H](N)C(=O)O)c1; 2Nal = N[C@@H](Cc1ccc2ccccc2c1)C(=O)O; AEF = NCCOc1ccc(C[C@H](N)C(=O)O)cc1; X19 = C[N+](C)(C)C[C@@H](CC(=O)O)N*; 3Pal = N[C@@H](Cc1cccnc1)C(=O)O; Lys(Me) = CNCCCC[C@H](N)C(=O)O; X7 = COCCOCCOCCOCCOCCOCCC(=O)*; Pen = CC(C)(S)[C@H](N)C(=O)O; Suc = O=C(CCC(=O)[*:2])[*:1]; Thp = NC1(C(=O)O)CCOCC1; Sar = CNCC(=O)O

Assay: Exposed Polar Surface Area (EPSA)
Assay type: physicochemical
Settings: SFC on Chirex 3014 column; sample 1 mM DMSO stock; read-out: EPSA
Method in brief: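 Polarity measured by SFC on a Chirex 3014 column (35 °C, 4 mL/min) with methanol/ammonium formate in CO2 as gradient eluent. Retention times were normalised to EPSA (Å^2) against eight reference compounds.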

EPSA	SMILES
152 A^2	COCC[N+](C)(C)CCCCc1cn(-c2ccc(C[C@H](NC(=O)[C@H]3NC(=O)[C@H](CCCCN(C)C(C)=O)NC(=O)[C@H](Cc4c[nH]c5c(C)cccc45)NC(=O)[C@H]([C@@H](C)O)NC(=O)[C@H](CC(=O)N(C)C)NC(=O)[C@@H](NC(=O)CCOCCOCC[N+](C)(C)C)C(C)(C)SSC3(C)C)C(=O)N[C@@H](Cc3ccc4ccccc4c3)C(=O)NC3(C(=O)N[C@@H](CCCCN(C)C(C)=O)C(=O)N[C@@H](CC(N)=O)C(=O)N[C@@H](Cc4cccnc4)C(=O)N(C)CC(=O)N(C)C)CCOCC3)cc2)nn1 [compound 337, cPEG3aCO-Pen(3)-N(N(Me)2)-T-7MeW-K(NMeAc)-Pen(3)-F(4TzlDMA4mPEG)-2Nal-THP-K(NMeAc)-N-3Pya-Sar-CON(Me)2] ({Me3N+(CH2)2O(CH2)2O(CH2)2CO}-[Pen]D(NMe2)T[Trp(7-Me)][Lys(Me)](Ac)[Pen][X80][2Nal][Thp][Lys(Me)](Ac)N[3Pal][Sar]-NMe2; disulfide 1-6)
190 A^2	CC(=O)NCCCC[C@@H]1NC(=O)[C@H](Cc2c[nH]c3c(-c4cccc(NC(C)=O)c4)cccc23)NC(=O)[C@H]([C@@H](C)O)NC(=O)[C@H](CC(N)=O)NC(=O)[C@@H](NC(=O)[C@@H](CCCC[N+](C)(C)C)NC(C)=O)C(C)(C)SSC(C)(C)[C@@H](C(=O)N[C@@H](Cc2ccc(OCCN)cc2)C(=O)N[C@@H](Cc2ccc3ccccc3c2)C(=O)NC2(C(=O)N[C@@H](CCC(=O)O)C(=O)N[C@@H](CC(N)=O)C(=O)N[C@@H](Cc3cncc(C)c3)C(=O)N(C)CC(N)=O)CCOCC2)NC1=O [compound 535, MeCO-k(Me)3-Pen(3)-N-T-7(3NAcPh)W-K(Ac)-Pen(3)-AEF-2Nal-THP-E-N-5MePyridinAla-Sar-CONH2] (Ac-[dLys(Me3)][Pen]NT[Trp(7-(3-AcNH-Ph))]K(Ac)[Pen][AEF][2Nal][Thp]EN[3Pal(5-Me)][Sar]-NH2; disulfide 2-7)
151 A^2	COCCOCCOCCOCCOCCOCCC(=O)N(C)CCCC[C@H](NC(=O)C1(NC(=O)[C@H](Cc2ccc3ccccc3c2)NC(=O)[C@H](Cc2ccc(OCCN)cc2)NC(=O)[C@H]2NC(=O)[C@H](CCCCNC(C)=O)NC(=O)[C@H](Cc3c[nH]c4c(C)cccc34)NC(=O)[C@H]([C@@H](C)O)NC(=O)[C@H](CC(N)=O)NC(=O)[C@@H](NC(C)=O)C(C)(C)SSC2(C)C)CCOCC1)C(=O)N[C@@H](CC(N)=O)C(=O)N[C@@H](Cc1cccnc1)C(=O)N(C)CC(N)=O [compound 92] (Ac-[Pen]NT[Trp(7-Me)]K(Ac)[Pen][AEF][2Nal][Thp][Lys(Me)](X7)N[3Pal][Sar]-NH2; disulfide 1-6)
173 A^2	CC(=O)NCCCC[C@@H]1NC(=O)[C@H](Cc2c[nH]c3c(C)cccc23)NC(=O)[C@H]([C@@H](C)O)NC(=O)[C@H](CC(N)=O)NC(=O)[C@@H](NC(=O)[C@@H](CCCCNC(=O)CCC(=O)N[C@H](CC(=O)O)C[N+](C)(C)C)NC(C)=O)C(C)(C)SSC(C)(C)[C@@H](C(=O)N[C@@H](Cc2ccc(OCCN)cc2)C(=O)N[C@@H](Cc2ccc3ccccc3c2)C(=O)NC2(C(=O)N[C@@H](CCCCNC(C)=O)C(=O)N[C@@H](CC(N)=O)C(=O)N[C@@H](Cc3cccnc3)C(=O)N(C)CC(N)=O)CCOCC2)NC1=O [compound 107] (Ac-[dK]([Suc-X19])[Pen]NT[Trp(7-Me)]K(Ac)[Pen][AEF][2Nal][Thp]K(Ac)N[3Pal][Sar]-NH2; disulfide 2-7)
